This data set relates to E. coli RNase P (M1 RNA + C5 protein). Nature of the data set: Inhibition of RNase P hydrolysis of fluorescent RNA target by inhibiting oligonucleotides. Conditions: 5 nM M1 RNA, 50 nM C5 protein, 100 nM fluorescent RNA target, 0-125 nM inhibiting oligonucleotide, 10 mM Tris-HCl pH 7.5, 10 mM MgCl2, 100 mM NH4Cl, 37°C; fluorescence read-out; mean ± SD from two independent experiments. It is filed as biochemical, Escherichia coli.

With “d-inh: oligodeoxyribonucleotide 5’-d(CAAGCAGCCTACCC) (DNA, backbone not given here)”, the IC50 (as a rule, the concentration that gives 50% inhibition) was determined as 270 ± 90 nM.
The same measure for “r-inh: native oligoribonucleotide 5’-r(CAAGCAGCCUACCC), complementary to nucleotides 291–304 in the P15-loop of E. coli M1 RNA (RNA, backbone not given here)”: 12 ± 4 nM.

These data come from publication PMC6658616, “Novel Peptide Conjugates of Modified Oligonucleotides for Inhibition of Bacterial RNase P” (Frontiers in Pharmacology, 2019).
